Tested on: 242566-281-R-J2-PDC complex spheroid viability
Test: Anticancer human tumor 242566-281-R-J2-PDC patient-derived pancreatic carcinoma cell line growth inhibition [CLK]
Conditions: for IC50: curve of first compound; for viability, T/C: stronger effect = lower value; active means viability on the fitted dose curve at most 10% of control; inactive means the rest
How it was run: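 Multi-cell-type spheroids combined patient-derived tumor cells with HUVEC endothelial cells and human mesenchymal stem cells. Paired agents were dosed in half-log steps down from about clinical Cmax, or from 10 microM where Cmax was unknown.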

[1] = second compound 0.0316 µM, first compound 0.0316 µM
[2] = second compound 0.0316 µM, first compound 0.1 µM
[3] = second compound 0.0316 µM, first compound 0.316 µM
[4] = second compound 0.0316 µM, first compound 1 µM
[5] = second compound 0.0316 µM, first compound 3.16 µM
[6] = second compound 0.0316 µM, first compound 10 µM
[7] = second compound 0.1 µM, first compound 0.0316 µM
[8] = second compound 0.1 µM, first compound 0.1 µM
[9] = second compound 0.1 µM, first compound 0.316 µM
[10] = second compound 0.1 µM, first compound 1 µM
[11] = second compound 0.1 µM, first compound 3.16 µM
[12] = second compound 0.1 µM, first compound 10 µM
[13] = second compound 0.316 µM, first compound 0.0316 µM
[14] = second compound 0.316 µM, first compound 0.1 µM
[15] = second compound 0.316 µM, first compound 0.316 µM
[16] = second compound 0.316 µM, first compound 1 µM
[17] = second compound 0.316 µM, first compound 3.16 µM
[18] = second compound 0.316 µM, first compound 10 µM
[19] = second compound 1 µM, first compound 0.0316 µM
[20] = second compound 1 µM, first compound 0.1 µM
[21] = second compound 1 µM, first compound 0.316 µM
[22] = second compound 1 µM, first compound 1 µM
[23] = second compound 1 µM, first compound 3.16 µM
[24] = second compound 1 µM, first compound 10 µM
[25] = second compound 3.16 µM, first compound 0.0316 µM
[26] = second compound 3.16 µM, first compound 0.1 µM
[27] = second compound 3.16 µM, first compound 0.316 µM
[28] = second compound 3.16 µM, first compound 1 µM
[29] = second compound 3.16 µM, first compound 3.16 µM
[30] = second compound 3.16 µM, first compound 10 µM
[31] = second compound 10 µM, first compound 0.0316 µM
[32] = second compound 10 µM, first compound 0.1 µM
[33] = second compound 10 µM, first compound 0.316 µM
[34] = second compound 10 µM, first compound 1 µM
[35] = second compound 10 µM, first compound 3.16 µM
[36] = second compound 10 µM, first compound 10 µM
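Further: spheroids exposed to compounds for 7 days before readout.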
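Wherever viability, T/C is given: 100% = DMSO vehicle control wells.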

CC(C)CC(NC(=O)C(Cc1ccccc1)NC(=O)c1cnccn1)B(O)O (stereo unspecified) + CNC(=O)c1ccc(Nc2nc(OC3CCCC3)c3c(-c4ccc5nc(C)oc5c4)c[nH]c3n2)c(OC)c1
4.24 nM: IC50 (second compound 0.0316 µM)
2.77 nM: IC50 (second compound 0.316 µM)
inactive: viability, T/C (second compound 0.0316 µM, first compound 0.000949 µM) 82.2% | viability, T/C (second compound 0.0316 µM, first compound 0.003 µM) 71.1% | viability, T/C (second compound 0.1 µM, first compound 0.000949 µM) 83.3% | viability, T/C (second compound 0.1 µM, first compound 0.003 µM) 62.8% | viability, T/C (second compound 0.316 µM, first compound 0.000949 µM) 83% | viability, T/C (second compound 0.316 µM, first compound 0.003 µM) 47.5% | viability, T/C (second compound 1 µM, first compound 0.000949 µM) 73.2% | viability, T/C (second compound 1 µM, first compound 0.003 µM) 19.7% | viability, T/C (second compound 3.16 µM, first compound 0.000949 µM) 60.6% | viability, T/C (second compound 10 µM, first compound 0.000949 µM) 59.4%
3.81 nM: IC50 (second compound 0.1 µM)
1.15 nM: IC50 (second compound 10 µM)
1.19 nM: IC50 (second compound 3.16 µM)
1.56 nM: IC50 (second compound 1 µM)
active: viability, T/C (second compound 0.0316 µM, first compound 0.00949 µM) 0.73% | viability, T/C (second compound 0.0316 µM, first compound 0.03 µM) 0.63% | viability, T/C (second compound 0.0316 µM, first compound 0.0949 µM) 0.4% | viability, T/C (second compound 0.0316 µM, first compound 0.3 µM) 0.56% | viability, T/C (second compound 0.1 µM, first compound 0.00949 µM) 0.92% | viability, T/C (second compound 0.1 µM, first compound 0.03 µM) 0.76% | viability, T/C (second compound 0.1 µM, first compound 0.0949 µM) 0.35% | viability, T/C (second compound 0.1 µM, first compound 0.3 µM) 0.57% | viability, T/C (second compound 0.316 µM, first compound 0.00949 µM) 0.7% | viability, T/C (second compound 0.316 µM, first compound 0.03 µM) 0.78% | viability, T/C (second compound 0.316 µM, first compound 0.0949 µM) 0.3% | viability, T/C (second compound 0.316 µM, first compound 0.3 µM) 0.78% | viability, T/C (second compound 1 µM, first compound 0.00949 µM) 0.52% | viability, T/C (second compound 1 µM, first compound 0.03 µM) 0.28% | viability, T/C (second compound 1 µM, first compound 0.0949 µM) 0.45% | viability, T/C (second compound 1 µM, first compound 0.3 µM) 0.4% | viability, T/C (second compound 3.16 µM, first compound 0.003 µM) 6.63% | viability, T/C (second compound 3.16 µM, first compound 0.00949 µM) 0.34% | viability, T/C (second compound 3.16 µM, first compound 0.03 µM) 0.29% | viability, T/C (second compound 3.16 µM, first compound 0.0949 µM) 0.35% | viability, T/C (second compound 3.16 µM, first compound 0.3 µM) 0.37% | viability, T/C (second compound 10 µM, first compound 0.003 µM) 3.83% | viability, T/C (second compound 10 µM, first compound 0.00949 µM) 0.57% | viability, T/C (second compound 10 µM, first compound 0.03 µM) 0.53% | viability, T/C (second compound 10 µM, first compound 0.0949 µM) 0.43% | viability, T/C (second compound 10 µM, first compound 0.3 µM) 0.42%

CC1COCCN1c1cc(C2(S(C)(=N)=O)CC2)nc(-c2ccnc3[nH]ccc23)n1 (stereo unspecified) + CNC(=O)c1ccc(Nc2nc(OC3CCCC3)c3c(-c4ccc5nc(C)oc5c4)c[nH]c3n2)c(OC)c1
763 nM: IC50 (second compound 1 µM)
192 nM: IC50 (second compound 3.16 µM)
> 10000 nM: IC50 (second compound 0.0316 µM) | IC50 (second compound 0.1 µM)
61.3 nM: IC50 (second compound 10 µM)
inactive: viability, T/C [1] 89% | viability, T/C [2] 105% | viability, T/C [3] 117% | viability, T/C [4] 118% | viability, T/C [5] 92.2% | viability, T/C [6] 61% | viability, T/C [7] 84.7% | viability, T/C [8] 90.1% | viability, T/C [9] 91.6% | viability, T/C [10] 104% | viability, T/C [11] 93% | viability, T/C [12] 55.6% | viability, T/C [13] 76.8% | viability, T/C [14] 77.8% | viability, T/C [15] 80.3% | viability, T/C [16] 70.8% | viability, T/C [17] 71% | viability, T/C [18] 41.7% | viability, T/C [19] 73.9% | viability, T/C [20] 69.7% | viability, T/C [21] 55.1% | viability, T/C [22] 49.4% | viability, T/C [23] 34.3% | viability, T/C [24] 17.7% | viability, T/C [25] 55.2% | viability, T/C [26] 55.1% | viability, T/C [27] 46.9% | viability, T/C [28] 36.2% | viability, T/C [29] 24.6% | viability, T/C [30] 13.4% | viability, T/C [31] 52.5% | viability, T/C [32] 47.1% | viability, T/C [33] 43.8% | viability, T/C [34] 33.2% | viability, T/C [35] 22.1% | viability, T/C [36] 13.5%
7160 nM: IC50 (second compound 0.316 µM)

O=C(c1cc(Cc2n[nH]c(=O)c3ccccc23)ccc1F)N1CCN(C(=O)C2CC2)CC1 + CNC(=O)c1ccc(Nc2nc(OC3CCCC3)c3c(-c4ccc5nc(C)oc5c4)c[nH]c3n2)c(OC)c1
inactive: viability, T/C [1] 94.9% | viability, T/C [2] 110% | viability, T/C [3] 96.1% | viability, T/C [4] 115% | viability, T/C [5] 95.6% | viability, T/C [6] 81.9% | viability, T/C [7] 97.9% | viability, T/C [8] 98.4% | viability, T/C [9] 117% | viability, T/C [10] 98.4% | viability, T/C [11] 88.4% | viability, T/C [12] 70.3% | viability, T/C [13] 92.6% | viability, T/C [14] 83.6% | viability, T/C [15] 87.6% | viability, T/C [16] 92.7% | viability, T/C [17] 92% | viability, T/C [18] 65% | viability, T/C [19] 81.9% | viability, T/C [20] 57.1% | viability, T/C [21] 65.5% | viability, T/C [22] 69.8% | viability, T/C [23] 70.5% | viability, T/C [24] 55.3% | viability, T/C [25] 63% | viability, T/C [26] 60% | viability, T/C [27] 58.6% | viability, T/C [28] 51.7% | viability, T/C [29] 52.2% | viability, T/C [30] 56.2% | viability, T/C [31] 52.5% | viability, T/C [32] 52.2% | viability, T/C [33] 52.7% | viability, T/C [34] 52.5% | viability, T/C [35] 46% | viability, T/C [36] 57.6%
> 10000 nM: IC50 (second compound 0.0316 µM) | IC50 (second compound 0.1 µM) | IC50 (second compound 0.316 µM) | IC50 (second compound 1 µM) | IC50 (second compound 3.16 µM) | IC50 (second compound 10 µM)

Source: PubChem BioAssay AID2060622 (Molecular Pharmacology Branch, DTP, NCI, 2025)
